pEC50: −log10 of the molar value. Active and inactive are the calls of the source. The rule behind the calls is not given here.
Assays:
Staphylococcus aureus [1] = experiment: Antimicrobial activity against Staphylococcus aureus assessed as diameter of zone of inhibition at 0.5 ug/ml measured after 18 to 24 hrs by paper disk diffusion method; format: functional; conditions: time 18-24 hrs, read-out: DIZ
Staphylococcus aureus [2] = experiment: Antimicrobial activity against Staphylococcus aureus assessed as diameter of zone of inhibition at 0.25 ug/ml measured after 18 to 24 hrs by paper disk diffusion method; format: functional, organism-based; conditions: dose 0.25 µg/ml, time 18-24 hrs
Coxsackievirus B3 [3] = experiment: Antiviral activity against Coxsackievirus B3 infected in human Hep-2 cells assessed as inhibition of virus-induced cytopathic effect measured after 48 hrs by MTT assay; format: functional, organism-based; conditions: Enterovirus B, HEp-2, 48 h
[4] = Selectivity index, ratio of CC50 for human Hep-2 cells to EC50 for antiviral activity against Coxsackievirus B3 infected in human Hep-2 cells; format: toxicity, cell-based; conditions: read-out: Ratio CC50/EC50
[5] = Cytotoxicity against Coxsackievirus B3 infected human Hep-2 cells assessed as reduction in cell viability measured after 48 hrs by MTT assay; format: toxicity, cell-based; conditions: Coxsackievirus B3 infected Hep-2 cells
Pseudomonas sp. = experiment: Antimicrobial activity against Pseudomonas sp. assessed as zone of inhibition at 80 ug measured after 1 to 2 days by paper disk diffusion method; format: functional, organism-based; conditions: dose 80.0 µg, time 1-2 day
Serratia entomophila = experiment: Antimicrobial activity against Serratia entomophila DSM 12358 assessed as zone of inhibition at 80 ug measured after 1 to 2 days by paper disk diffusion method; format: functional, organism-based; conditions: dose 80.0 µg, time 1-2 day
Escherichia coli = experiment: Antimicrobial activity against Escherichia coli DH10B assessed as zone of inhibition at 80 ug measured after 1 to 2 days by paper disk diffusion method; format: functional, organism-based; conditions: dose 80.0 µg, time 1-2 day
Coxsackievirus B3 [6] = experiment: Antiviral activity against Coxsackievirus B3 infected in human Hep-2 cells assessed as protection against virus-induced pathological changes measured after 48 hrs by microscopic analysis; format: functional, organism-based
Saccharomyces cerevisiae = experiment: Antimicrobial activity against Saccharomyces cerevisiae assessed as zone of inhibition at 80 ug measured after 1 to 2 days by paper disk diffusion method; format: functional, organism-based; conditions: dose 80.0 µg, time 1-2 day
Staphylococcus aureus [7] = experiment: Potentiation of imipenem-induced antimicrobial activity against Staphylococcus aureus at 10 ug measured after 18 to 24 hrs in presence of 0.5 ug/ml imipenem by paper disk diffusion method; format: functional, organism-based; conditions: dose 10.0 µg, time 18-24 hrs
Staphylococcus aureus [8] = experiment: Antimicrobial activity against Staphylococcus aureus assessed as zone of inhibition at 80 ug measured after 1 to 2 days by paper disk diffusion method; format: functional; conditions: time 1-2 day, read-out: IZ
Coxsackievirus B3 [9] = experiment: Antiviral activity against Coxsackievirus B3 infected in human Hep-2 cells assessed as inhibition of virus-induced cytopathic effect measured after 48 hrs by MTT assay relative to control; format: functional
Micrococcus luteus = experiment: Antimicrobial activity against Micrococcus luteus assessed as zone of inhibition at 80 ug measured after 1 to 2 days by paper disk diffusion method; format: functional, organism-based; conditions: dose 80.0 µg, time 1-2 day
Coxsackievirus B3 [10] = experiment: Antiviral activity against Coxsackievirus B3 infected in human Hep-2 cells assessed as protection against virus-induced apoptosis measured after 48 hrs by microscopic analysis; format: functional, organism-based
Coxsackievirus B3 [11] = experiment: Antiviral activity against Coxsackievirus B3 infected in human Hep-2 cells assessed as log reduction in viral progeny yield measured after 48 hrs relative to control; format: functional

Structure (SMILES)	zone of inhibition at 0.5 µg/mL (Staphylococcus aureus [1]) [mm]	diameter of the inhibition zone (DIZ) (Staphylococcus aureus [2])	pEC50 (Coxsackievirus B3 [3])	selectivity ratio [4]	CC50 at 48 h [5] [µM]	inhibition zone (IZ) (Pseudomonas sp.)	inhibition zone (IZ) (Serratia entomophila)	inhibition zone (IZ) (Escherichia coli)	Activity (Coxsackievirus B3 [6])	inhibition zone (IZ) (Saccharomyces cerevisiae)	Activity (Staphylococcus aureus [7])	zone of inhibition at 80 µg/disc (Staphylococcus aureus [8]) [mm]	Imax (Coxsackievirus B3 [9]) [%]	inhibition zone (IZ) (Micrococcus luteus)	Activity (Coxsackievirus B3 [10])	log(activity) (Coxsackievirus B3 [11])
C[C@@H](O)[C@H]1C(=O)N2C(C(=O)O)=C(SCCNC=N)C[C@H]12 [IMIPENEM ANHYDROUS]	~2	inactive														
NC(=O)c1ncn([C@@H]2O[C@H](CO)[C@@H](O)[C@H]2O)n1 [RIBAVIRIN]			3.95	3.4	386											
C=C[C@@](C)(O)[C@@H]1C[C@H]2C(=C)[C@@H]3C[C@H]4C(C)(C)CCC[C@]24[C@H]1O3			4.11	2	160	inactive	inactive	inactive	Active	inactive	inactive	~1	90.1	inactive	Active	
C=C[C@](C)(O)[C@H]1C[C@H]2C(=C)[C@@H]3C[C@H]4C(C)(C)CCC[C@]24[C@H]1O3			4.37	3.8	161	inactive	inactive	inactive	Active	inactive	inactive	~1	85.3	inactive	Active	
C=C[C@@](C)(O)[C@H]1C[C@H]2C(=C)[C@@H]3C[C@H]4C(C)(C)CCC[C@]24[C@H]1O3			4.57	6.2	168	inactive	inactive	inactive	Active	inactive	inactive	~1	91.2	inactive	Active	~4.5

— ChEMBL document CHEMBL5576100, “Genome-Driven Discovery of Antiviral Atralabdans A-C from the Soil-Dwelling Streptomyces atratus” (J Nat Prod, 2024)
